Data as given in US20250345356A1, “TIRAPAZAMINE COMPOSITIONS AND METHODS” (priority 2024, published 2025).
“And” between values parts separate entries of the source, which are not always exact repeats. Equal entries are not always repeated. Where two headings read alike, the source gives them in different places.

Tests used:
[1] = PK of TPZ and metabolites SR4317 and SR4330 after intra-arterial injection of TPZ in NS vs HPβCD; format: in vivo, Sprague Dawley rats; conditions: for AUClast, HβC Mean / Cmax, HβC Mean / AUClast, Normal Saline (NS) Mean / Cmax, Normal Saline (NS) Mean: rats
Excerpt: Purpose of the study: To evaluate the pharmacokinetics (PK) of tirapazamine and its metabolites, SR4317 and SR4330 [Graham, M A et al. Cancer Chemother. Pharmacol. (1997) 40 (1): 1-10], after injection of TPZ in 1% HPβCD or normal saline.
Animals: Twenty-four female (12) and male (12) Sprague Daley (SD) rats, weight 200-250 grams, respectively, with femoral artery and jugular vein cannulated, were purchased from, Taconic. Two extra cannulated male and female rates were used to test tolerability with buffer. Each rate was housed individually to safeguard the vessel catheters.
The study parameters are shown in Table 22. began after a 3-day period of adjustment to the animal facility. The study compound was injected into the femoral artery catheter (FAC at 2-1 m (by slow injection. Blood samples were collected from a jugular vein catheter (JVC) at 6 timepoints: 0 (baseline) and after drug administration at 15 and 30 minutes, 1 hr, 2 hr, and 6 hours. The volume of blood sample for each time point was approximately 0.6 mL. Plasma samples were collected in tubes containing sodium heparin as anti-coagulant. Plasma was prepared and frozen in −80° C. Rats were euthanized after the last blood sample (euthanized after the 6 hr time point).
Male rats were around 250 grams, and female 200 grams. There were 8 groups with Groups 1-4 females, and […]. Each group had 3 rats. TPZ was dissolved in NS or […] at a concentration 0.7 mg/mL.
The concentrations of TPZ and its metabolites, SR4317 and SR4330, in rat plasma samples were analyzed using liquid chromatography Tandem Mass Spectrometry (LC-MS) by Primera Analytical Solutions Corp (Princeton, NJ). Standards for TPZ, SR4317 and SR4330 were provided by Teclison, Inc. (Princeton, NJ) for calibration. All analytical data were reviewed for completeness and accuracy. Data transferred manually was cross-checked against source data which was part of the study raw data.
LC-MS analysis was conducted with Sciex 4000 with a Shimadzu LC-30 System.
The concentration data was imported and plotted with SAS program as ADPC (Analysis Dataset of Pharmacokinetics Concentrations) dataset. PK parameters calculated based on ADPC were output as an Analysis Dataset of Pharmacokinetics Parameters (ADPP) dataset.
PK parameters of each profile were calculated by non-compartmental analysis using SAS programming. BLQ (Below the Limit of Quantification) observation prior to the first measurable concentration was imputed as zero, otherwise, the BLQ observation was left as missing.
An apparent first-order terminal elimination rate constant (Kel) was calculated by linear least-squares regression analysis using at least three points (excluding Cmax) in the terminal log-linear phase. Uniform weighting was adopted when performing regression analysis. Linear-up/log-down approach was utilized to calculate AUC.
A linear model was built to evaluate the effect of solution on the PK parameters, adjusting for sex and dose. The model included sex (F, M), solution type (Normal saline, Hydroxypropyl-beta-Cyclodextrin “HP-beta-CD”), and dose (mg) as fixed effects. Sex and solution type are categorical variables (meaning a variable based on a qualitative, not numerical, property) and dose is a continuous variable (meaning a random variable that can take on an infinite number of values within a certain interval that represents measurable data). Separate models were built for each combination of analyte (TPZ, SR4317 and SR4330) and PK parameters (AUClast and Cmax) using the BY statement, which divides the observations from an input data set into groups for processing.
The difference of lease squared means between solution types was estimated. 95% confidence intervals (CI), and p-values for the difference were presented. The significance level (alpha) was set at 0.05, meaning that a p-value less than 0.05 was considered statistically significant.

HCC [2] = conditions: cited from earlier work
[3] = mice, intravenous administration; cited from earlier work
[4] = cited from earlier work
advanced NSCLC = conditions: cited from earlier work
[5] = cited from earlier work; remark: listed apart in the source
HCC [6] = conditions: cited from earlier work; remark: listed apart in the source
[7] = system: unresectable intermediate stage HCC; conditions: cited from earlier work
[8] = intra-arterial TPZ 3.33 mg/kg in HPβCD
[9] = intra-arterial TPZ 3.33 mg/kg in NS
[10] = intra-arterial TPZ 7 mg/kg in HPβCD
[11] = intra-arterial TPZ 7 mg/kg in NS

## Nc1n[n+]([O-])c2ccccc2[n+]1[O-] [tirapazamine, 3-amino-1,2,4-benotriazine-1,4-di-N-oxide]
[1]; 3.33 mg/kg
  AUClast HβC/NS Ratio (%): 86.94%
  Cmax HβC/NS Ratio (%): 91.15%
[1]; 3.33 mg/kg vs. 7 mg/kg in either solvent
  dose proportionality of plasma concentrations: dose proportional effect was observed
[1]; 7 mg/kg
  AUClast HβC/NS Ratio (%): 94.02%
  Cmax HβC/NS Ratio (%): 101.02%
[1]; FIG. 23
  plasma concentrations, TPZ in NS versus HPβCD: no difference
[1]; [8]
  AUClast, HβC Mean: 781.49 ng·h/mL
  Cmax, HβC Mean: 1476.67 ng/mL
[1]; [9]
  AUClast, Normal Saline (NS) Mean: 898.92 ng·h/mL
  Cmax, Normal Saline (NS) Mean: 1620.00 ng/mL
[1]; [10]
  AUClast, HβC Mean: 2423.84 ng·h/mL
  Cmax, HβC Mean: 4468.33 ng/mL
[1]; [11]
  AUClast, Normal Saline (NS) Mean: 2578.02 ng·h/mL
  Cmax, Normal Saline (NS) Mean: 4423.33 ng/mL
HCC [2]; 17 patients
  CR or partial response (PR), objective response rate (ORR): 64.7%
  patients who achieved CR as the best target tumor lesion response: 47.1%
HCC [2]; mRECIST criteria
  median Time to Progression: not reached
[3]
  LD10: 294 mg/kg
  LD50: 303 mg/kg
[4]; 36-450 mg/m^2 i.v.
  tumor responses: no tumor responses were seen
[4]; human, in vivo, 330 mg/m2
  AUC of tirapazamine at which ototoxicity was not observed: ≤ 1252 µg·min/mL
[4]; human, in vivo, iv
  Maximally Tolerated Dose (MTD): 390 mg/m^2
  dose-limiting toxicities: reversible deafness and tinnitus
  duration of cramps: 1 to 14 days
  mean Vdss: 39 ± 12.5 L
  mean clearance (±SD): 624.2 ± 157 mL/min
  onset of muscle cramps after the start of infusion: 2.4 to 24 h
[4]; human, in vivo
  increase in AUC(0-inf): ~19 fold
Advanced NSCLC; arm 1 (with tirapazamine 260-330 mg/m^2) vs arm 2
  removed from treatment as a result of toxicity: 26%
Advanced NSCLC; arm 1 vs arm 2
  patients who developed ≥grade 3 febrile neutropenia: Twenty
Advanced NSCLC; tirapazamine added to paclitaxel and carboplatin
  survival compared with paclitaxel and carboplatin alone: does not result in improved survival
[5]; 3 mg/kg and 6 mg/kg i.v. with transient left HAL, Day 1
  necrosis of the left lobe of the liver (histopathology): 1%
[5]; 3 mg/kg or 6 mg/kg with left HAL
  survival after 1 and 7 days: survived
[5]; Day 1, dose-dependent
  serum alanine transaminase (ALT) level: elevated on Day 1
[5]; i.v. infusion
  potentially safe doses combined with transient left HAL: ≤ 6 mg/kg
HCC [6]; Day 1 post-treatment, tirapazamine 3 mg/kg, doxorubicin 10 mg/kg, transient left HAL
  necrosis in the HCC within the territory of HAL: more than 99%
HCC [6]; Day 7, 3 mg/kg with left HAL, H&E
  necrosis of HCCs in the territory of the left HAL: 90-99%
HCC [6]; Day 7, three mice, 3 mg/kg with left HAL, 3 mg/kg
  tumor necrosis, individual mice: 90% and 99% (2×)
HCC [6]; Day 7, with left HAL
  necrosis in the tumor-free part of the left lobe of the liver: no evidence of necrosis
[7]; 15 patients who achieved CR by mRECIST
  median duration of target lesion response: not reached
[7]; 21 patients who achieved CR or PR
  median duration of target lesion response: not reached
[7]; 27 patients
  treatment emergent AE grade 3 or higher: ALT increased: 11.1%
  treatment emergent AE grade 3 or higher: AST increased: 14.8%
  treatment emergent AE grade 3 or higher: hypertension: 25.9%
  treatment-related AE: ALT increased: 7.4%
  treatment-related AE: AST increased: 7.4%
  treatment-related AE: bradycardia: 7.4%
  treatment-related AE: fatigue: 7.4%
  treatment-related AE: hypertension: 11.1%
[7]; 46 target lesions
  CR rate by lesions: 65.2%
  ORR (CR+PR) by lesions: 78.3%
[7]; CR patients
  local recurrence in the embolized territory: 13.3%
[7]; CR+PR patients
  local recurrence in the embolized territory: 28.6%
[7]; all cohorts, with TAE
  dose-limiting toxicity (DLT): no dose-limiting toxicity
[7]; mRECIST, 25 evaluable patients
  patients who achieved CR in target lesions: 60.0%
  patients who achieved CR+PR: 84.0%
[7]; two phase I studies, tirapazamine with TAE
  Complete Response (CR) rate: 50-60%
[7]; up to 20 mg/m^2 I.A.
  MTD of tirapazamine in combination with TAE: not established
